Results published in US7390804B2, “N-containing five-membered ring compounds and pharmaceutical agents comprising the same as active ingredient” (Ono Pharmaceutical Co., Ltd., priority 2000, dated 2008).

Tests used:
cathepsin S = cathepsin S (Homo sapiens, UniProt P25774); assay: Measurement of Cathepsin S inhibitory activity; type: biochemical; conditions: pH 6.5, 37° C.
Description: (iii) Measurement of Cathepsin S Inhibitory Activity
10 μL of synthesized substrate (carbobenzoxy-L-leucyl-L-leucyl-L-arguinine-4-methyl-chromanyl-7-amide) solution and 5 μL of cysteine protease inhibitor solution of several concentrations, 75)L of cathepsin S enzyme reaction buffer (100 mmol/L of sodium phosphate, 2 mmol/L of EDTA, 2 mmol/L of DTT were mixed to adjust to pH 6.5) and 10 μL of cathepsin S enzyme solution were mixed and the increase of fluorescence intensity was measured (λ ex(excitation wavelength)=355 nm, λ em (fluorescence wavelength)=460 nm) when reacted at 37° C.

Cathepsin K = target: T1, Cathepsin K (Homo sapiens, UniProt P43235); assay: Measurement of Cathepsin K inhibitory activity; type: biochemical; conditions: Dixon plot, pH 5.5, 37° C.
T1 sequence (P43235 115-329): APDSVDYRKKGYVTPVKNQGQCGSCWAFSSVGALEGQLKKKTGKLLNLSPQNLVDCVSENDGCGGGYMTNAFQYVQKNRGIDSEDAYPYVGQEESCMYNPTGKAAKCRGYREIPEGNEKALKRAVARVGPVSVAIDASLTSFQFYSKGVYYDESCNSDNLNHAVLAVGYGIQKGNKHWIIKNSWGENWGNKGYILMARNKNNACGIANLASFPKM
Description: (i) Measurement of Cathepsin K Inhibitory Activity
65 μL of Cathepsin K enzyme reaction buffer (50 mmol/L of 2-(N-morpholino)ethanesulfonate, 2 mmol/L of ethylenediamine tetraacetate (EDTA) and 4 mmol/L of dithiothreitol (DTT) were mixed to adjust to pH 5.5), 5 μL of cysteine protease inhibitor solution of several concentrations, 20 μL of synthesized substrate (t-butyloxycarbonyl-L-alanyl-glycyl-L-prolyl-L-arginine-4-methyl-chromanyl-7-amide) solution of several concentrations and 10 μL of cathepsin K enzyme solution were mixed and the increase of fluorescence intensity when reacted at 37° C. was measured (λ ex (excitation wavelength)=355 nm, λ em (fluorescence wavelength)=460 nm). As to the substrate and the compound of the present invention, enzyme reactions were carried out in combination of several appropriate concentrations and Dixon plotting was prepared, to define the absolute value of X-coordinate of the intersection point of the graph as Ki value.

Chain of cathepsin S (P25774 115-331, species assumed): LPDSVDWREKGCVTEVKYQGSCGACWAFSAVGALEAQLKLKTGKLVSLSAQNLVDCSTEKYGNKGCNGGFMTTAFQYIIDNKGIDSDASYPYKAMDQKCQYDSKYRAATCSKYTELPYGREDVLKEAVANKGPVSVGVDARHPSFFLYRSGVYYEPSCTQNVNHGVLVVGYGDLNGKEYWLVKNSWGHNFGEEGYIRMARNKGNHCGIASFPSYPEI

| Structure (SMILES) | inhibition at 1 µM (cathepsin S) [%] | Ki (Cathepsin K) [µM] |
| --- | --- | --- |
| CC(C)C[C@H](NC(=O)[C@H](CC(C)C)NC(=O)OCc1ccccc1)C(=O)Cn1nc(CCc2ccccc2)oc1=O [example 3(17), 2(S)-N-[3(S)-1-(5-oxo-2-(2-phenylethyl)-1,3,4-oxadiazolin-4-yl)-2-oxo-5-methyl-3-hexyl]-2-benzyloxycarbonylamino-4-methylpentanamide] | 90 | – |
| CC(C)C[C@H](NC(=O)[C@H](CC(C)C)NC(=O)OCc1ccccc1)C(=O)Cn1c(-c2ccc(F)cc2)noc1=O [example 3(7), 2(S)-N-[3(S)-1-(5-oxo-3-(4-fluorophenyl)-1,2,4-oxadiazolin-4-yl)-2-oxo-5-methyl-3-hexyl]-2-benzyloxycarbonylamino-4-methylpentanamide] | – | 0.036 |
| CC(C)C[C@H](NC(=O)[C@H](CC(C)C)NC(=O)OCc1ccccc1)C(=O)Cn1nnc(-c2c(F)c(F)c(F)c(F)c2F)n1 [example 1(40), 2(S)-N-[3(S)-1-(5-(perfluorophenyl)tetrazol-2-yl)-2-oxo-5-methyl-3-hexyl]-2-benzyloxycarbonylamino-4-methylpentanamide] | – | 0.021 |
